Read-outs that look alike come from different tables or passages of the source.
Key:
Assay type in all cases: in vivo, SD rats
[1] = tested on: rats with cerebral ischemic reperfusion injury
Experimental: 336 healthy male SD rats weighing 250-300 g, provided by the Experimental Animal Center of the Fourth Military Medical University, were randomly divided into 14 groups: the sham operation group, the ischemic reperfusion group, and Examples 1-12 groups (i.e., the Example groups).
(§1) Rats were intraperitoneally injected with 10% chloral hydrate 350 mg/kg after anesthesia and opened up at the center of the neck in accordance with the Zea Longa modified method. The right common carotid artery was separated, and the right external carotid artery branches was ligated. A small opening was made at the distal end of the external carotid artery, and a previously prepared thread was inserted through the common carotid artery and the external carotid artery bifurcation into the internal carotid artery, till the anterior end of the middle cerebral artery, with an immersed depth of 18 to 19 mm. The thread was then secured, and the wound was sutured layer by layer. After the operation, the rats were placed in a clean incubator to wake up. […] The sham operation group, the ischemic reperfusion group, and the Example groups were prepared strictly according to the requirements of the cerebral ischemic reperfusion model, while in the sham operation group the thread was put only into the external carotid artery. The animals were allowed to eat and drink freely after waking up. After 2 h, the thread was pulled out to achieve reperfusion. The sham operation group, the ischemic reperfusion group, and the Example groups were administered intravenously the aqueous solution of the biphenyl derivatives in PEG400 at 40 mg/kg (40 mg/kg means that 40 mg of the test compound per kg of the body weight of rats) 30 min before reperfusion and 12 h after reperfusion, respectively. The sham operation group and the ischemic reperfusion group were injected with the same amount of blank PEG400 aqueous solution at the same time point.
The neurological impairment was scored in each group 24 h after reperfusion. The scoring was in accordance with the Longa 5-grade method: grade 0: no nerve injury symptom; grade 1: inability of stretching the contralateral forepaw; grade 2: circling to the opposite side; grade 3: tumbling to the opposite side; grade 4: no autonomous activity with loss of consciousness.

Fas = Fas determination (immunohistochemical method), cerebral ischemic reperfusion MCAO model
Experimental: as §1
(§2) 24 hours after reperfusion, 8 rats in each group were sacrificed by decapitation, the brain was removed, rinsed with PBS (pH 7.4) at −20° i for 20 min, evenly sliced (with a thickness of 2 mm), stained in a 2% TTC solution at 37°% in the dark for 30 min, fixed in 10% formalin for 24 h, and photographs were taken to analyze the infarct volume. A mixture of femoral arterial and venous blood was drawn from another 8 rats in each group under anesthesia, placed in a low temperature centrifuge at 4° C., centrifuged at 3500 r/min for 20 min, and the supernatant was stored in a refrigerator at −20° C. ready for SOD and MDA detection. After the blood was drawn, a perfusion needle was insert through the apex to the ascending aorta, and saline at 4° C. was rapid infused until the effluent became clear, followed by 4% paraformaldehyde phosphate buffer perfusion for fixation; the brain was removed by craniotomy, and brain tissues 2 mm in front of and behind the optic chiasma were taken and fixed, dehydrated, rendered transparent, impregnated in wax, and embedded. Brain continuous coronary tissue pathological sections were consecutively cut for later use. The remaining 8 rats in each group were sacrificed, brains were removed, the ischemic brain hemispheres were immediately taken on an ice tray, and 10% brain tissue homogenate was prepared for the detection of IL-1β and TNF-α.
The immunohistochemical method was used for determination. Brain tissue paraffin sections were dewaxed into water, washed with 3% H2O2 to eliminate endogenous peroxidase activity, and rinsed with distilled water for 3 times. Sodium citrate buffer was used for antigen heat repairing, and blocking with calf serum was carried out at room temperature for 15 min; a rabbit anti-mouse Fas antibody was added dropwise, allowed to stand at 4°t overnight, biotinylated goat anti-rabbit IgG was added dropwise, and heated in a water bath at 37°a for 20 min. Washing with PBS for 5 min was continuously repeated 4 times, followed by staining with DAB and sufficient washing without counterstaining. The sections were then gradient dehydrated with alcohol, made transparent with toluene, sealed and fixed. Images were captured by a video camera under high-power optical microscope and inputted into the image analysis system for image analysis. […]

[2] = tested on: rats with permanent cerebral ischemia injury; test: Relative infarct volume (TTC, imageJ), permanent cerebral ischemia model; details: for Relative Brain infarction volume (%): 40 mg/kg intravenously 30 min before insertion of thread and 12 h after embolism, 24 h after the embolism
Experimental: as §1, with “the permanent cerebral ischemia model” for “the ischemic reperfusion”, “up.” for “up. After 2 h, the thread was pulled out to achieve reperfusion.”, “before insertion of thread” for “before reperfusion”, “after embolism,” for “after reperfusion,”
as §2, with “the embolism,” for “reperfusion,”, “−20°i” for “−20° i”
The infarct area in each brain section was analyzed and quantified by the imageJ image software, and the ratio of cerebral infarction volume in the overall brain volume was calculated.

MDA = MDA determination, permanent cerebral ischemia model
Experimental: as §1, with “the permanent cerebral ischemia model” for “the ischemic reperfusion”, “up.” for “up. After 2 h, the thread was pulled out to achieve reperfusion.”, “before insertion of thread” for “before reperfusion”, “after embolism,” for “after reperfusion,”
as §2, with “the embolism,” for “reperfusion,”, “−20°i” for “−20° i”
SOD and MDA were determined strictly in accordance with instructions of the kit.

[3] = ischemic reperfusion MCAO rats, 40 mg/kg intravenously 30 min before and 12 h after reperfusion, scored 24 h after reperfusion, Longa grade 0-4
[4] = ischemic reperfusion MCAO rats, 40 mg/kg intravenously, brain sections 24 h after reperfusion, gray scale inversely proportional to positive expression
[5] = permanent cerebral ischemia model rats, 40 mg/kg intravenously, serum, 24 h after the embolism

Row | Molecule | Average score of neurological impairment [1, 3] | Fas average gray scale (Fas; [4]) | Relative Brain infarction volume (%) [2] | MDA CONTENT (MDA; [5]) | also measured
1 | CCCc1cc(-c2cc(CCC)c(O)c(CCC)c2)cc(CCC)c1O [Example 7 group, 4,4′-dihydroxy-3,3′,5,5′-tetrapropylbiphenyl] | 2.1 | 157.26 ± 4.05 | 21.39 ± 4.01 % | 4.42 ± 0.39 mmol/mL | –
2 | CC(=O)OC(C)Oc1c(C(C)C)cc(-c2cc(C(C)C)c(O)c(C(C)C)c2)cc1C(C)C (stereo not drawn) [Example 12 group, Ethyl 1-(4′-hydroxy-3,3′,5,5′-tetraisopropylbiphenyl-4-oxo)acetate] | 2.4 | 144.26 ± 3.47 | 31.79 ± 5.94 % | 6.03 ± 0.36 mmol/mL | –
3 | CC(C)c1cc(-c2cc(C(C)C)c(OC(=O)C(N)C(C)C)c(C(C)C)c2)cc(C(C)C)c1O (stereo not drawn) [Example 11 group, 4′-hydroxy-3,3′,5,5′-tetraisopropylbiphenyl-2-amino-3-methylbutyrate] | 2.2 | 152.12 ± 6.17 | 28.98 ± 5.24 % | – | –
4 | CC1=NN(c2ccccc2)C(=O)C1 [Edaravone injection, edaravone, reference compound] | – | – | – | – | Fas average gray scale (Fas; ischemic reperfusion rat model, edaravone 3 mg/kg): 139.65 ± 2.05; Brain relative infarct volume (%) ([2]; edaravone 3 mg/kg): 31.29 ± 4.02 %; MDA CONTENT (MDA; permanent cerebral ischemia model rats, edaravone 3 mg/kg): 5.98 ± 0.44 mmol/mL
5 | CC(C)c1cc(-c2cc(C(C)C)c(Cl)c(C(C)C)c2)cc(C(C)C)c1O [Example 9 group, 4-chloro-4′-hydroxy-3,3′,5,5′-tetraisopropylbiphenyl] | – | – | – | – | Average score of neurological impairment ([1]; rat, in vivo, iv, 40 mg/kg): 2.4; Fas average gray scale (Fas; rat, in vivo, iv, 40 mg/kg): 147.11 ± 5.61; MDA CONTENT (MDA; rat, in vivo, iv, 40 mg/kg): 5.26 ± 0.49 mmol/mL
6 | CCCc1cc(-c2cc(CCC)c(O)c(C(C)C)c2)cc(C(C)C)c1O [Example 6 group, 4,4′-dihydroxy-3,3′-diisopropyl-5,5′-dipropylbiphenyl] | 2.0 | 155.33 ± 3.78 | 22.53 ± 4.62 % | 4.31 ± 0.51 mmol/mL | –
7 | CC(C)c1cc(-c2cc(C(C)C)c(OC=O)c(C(C)C)c2)cc(C(C)C)c1O [Example 10 group] | 2.2 | 145.06 ± 4.08 | 26.46 ± 4.52 % | – | –
8 | CC(=O)Oc1c(C(C)C)cc(-c2cc(C(C)C)c(O)c(C(C)C)c2)cc1C(C)C [Example 1 group, 4′-hydroxy-3,3′,5,5′-tetraisopropylbiphenyl-4-acetate] | 2.0 | – | – | – | Relative Brain infarction volume (%) ([2]; 40 mg/kg): 24.71 ± 3.76 %; MDA CONTENT (MDA; permanent cerebral ischemia model rats, 40 mg/kg intravenously, serum, 24 h after the embolism, 40 mg/kg): 4.49 ± 0.59 mmol/mL
9 | CC(C)c1cc(-c2cc(C(C)C)c(OC(=O)CCC(=O)O)c(C(C)C)c2)cc(C(C)C)c1O [Example 5 group, [4-(4′-hydroxy-3,3′,5,5′-tetraisopropylbiphenyl)oxy]-4-carbonyl butyric acid] | 2.2 | 148.02 ± 4.16 | 28.37 ± 5.02 % | 4.68 ± 0.42 mmol/mL | –
10 | CC(C)c1cc(-c2cc(C(C)C)c(C(=O)O)c(C(C)C)c2)cc(C(C)C)c1O [Example 8 group, 4′-hydroxy-3,3′,5,5′-tetraisopropylbiphenyl-4-carboxylic acid] | 2.3 | 148.82 ± 7.62 | 29.74 ± 3.13 % | 5.06 ± 0.28 mmol/mL | –
11 | 3,3′,5,5′-tetraisopropylbiphenyl-4,4′-bis(oxymethylene phosphate) [Example 3 group] | 2.4 | – | – | – | Fas average gray scale (Fas; rat, in vivo, iv, 40 mg/kg): 144.56 ± 6.32; MDA CONTENT (MDA; rat, in vivo, iv, 40 mg/kg): 5.07 ± 0.77 mmol/mL
12 | CC(=O)Oc1c(C(C)C)cc(-c2cc(C(C)C)c(OC(C)=O)c(C(C)C)c2)cc1C(C)C [Example 2 group, 3,3′,5,5′-tetraisopropylbiphenyl-4′-diacetate] | 2.1 | 148.36 ± 5.33 | 27.92 ± 4.51 % | 5.10 ± 0.82 mmol/mL | –

From patent US10329243B2, “Biphenyl derivative and uses thereof” (XI'AN LIBANG PHARMACEUTICAL CO., LTD, priority 2015, dated 2019)
